Values joined by “and” are separate entries in the source; they are usually repeats but may differ in a detail not shown here. Identical values can stand only once.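 Grown in 96-well plates, cells were treated for 48 hours with each compound at five concentrations. Insufficient inhibition: endpoint recorded as highest concentration tested. GI50 marks 50% less growth. TGI marks complete inhibition of growth.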
How the values were obtained:
Test in all cases: NCI anticancer screen, dose series, 48 h
NCI-H460 lung = test system: NCI-H460 lung
SW-620 colon = test system: SW-620 colon
NCI-H23 lung = test system: NCI-H23 lung
MDA-MB-435 = test system: MDA-MB-435
CAKI-1 renal = test system: CAKI-1 renal
HCC-2998 colon = test system: HCC-2998 colon
HCT-116 colon = test system: HCT-116 colon
ACHN renal = test system: ACHN renal
UACC-62 melanoma = test system: UACC-62 melanoma
OVCAR-5 ovarian = test system: OVCAR-5 ovarian

Row | SMILES | GI50 (NCI-H460 lung) | TGI (NCI-H460 lung) | GI50 (SW-620 colon) | TGI (SW-620 colon) | GI50 (NCI-H23 lung) | TGI (NCI-H23 lung) | GI50 (MDA-MB-435) | TGI (MDA-MB-435) | GI50 (CAKI-1 renal) | TGI (CAKI-1 renal) | GI50 (HCC-2998 colon) | TGI (HCC-2998 colon) | GI50 (HCT-116 colon) | TGI (HCT-116 colon) | GI50 (ACHN renal) | TGI (ACHN renal) | GI50 (UACC-62 melanoma) | TGI (UACC-62 melanoma) | GI50 (OVCAR-5 ovarian) | TGI (OVCAR-5 ovarian)
1 | CC/C=C\C/C=C\C[C@H](O)C/C=C1/C(=O)C=C[C@@H]1C/C=C\CCCC(=O)O | 3.84 µM | > 100 µM | 4.46 µM | 70.6 µM | 4.09 µM | 17.1 µM | 3.1 µM | 12 µM | 6.56 µM | 21.4 µM | 2.21 µM | 4.28 µM | 2.08 µM | 4.5 µM | 4.84 µM | 18.5 µM | 1.94 µM | 8.02 µM | 7.22 µM | 30 µM
2 | COC(=O)c1ccc(NC(=O)Nc2ccc3oc(=O)c4ccccc4c3c2)cc1 | 41.6 µM | > 100 µM | 30.9 µM | 98.3 µM | 71.4 µM | > 100 µM | 27.9 µM | 89.3 µM | 70.9 µM | > 100 µM | 27.1 µM | 74 µM | 32.4 µM | > 100 µM | 29.5 µM | > 100 µM | 82.2 µM | > 100 µM | 97.7 µM | > 100 µM
3 | Cc1cc(=O)[nH]o1 | – | > 100 µM | – | > 100 µM | – | > 100 µM | – | > 100 µM | – | > 100 µM | – | > 100 µM | – | > 100 µM | – | > 100 µM | – | > 100 µM | – | > 100 µM
4 | COc1ccc2c(c1)C(=O)c1c-2c(Nc2ccc(C(C)=O)cc2)nc2ccccc12 | 85.1 µM | > 100 µM | > 100 µM | > 100 µM | 18 µM | 99.2 µM | > 100 µM | > 100 µM | > 100 µM | > 100 µM | 97.1 µM | > 100 µM | 4.17 µM | 19.2 µM | 53.5 µM | > 100 µM | 21.9 µM | > 100 µM | 29.6 µM | > 100 µM
5 | Cn1cc(C2=C(c3cccnc3)C(=O)NC2=O)c2ccccc21 | > 23.1 µM | > 25 µM | > 25 µM | > 25 µM | > 25 µM | > 25 µM | > 25 µM | > 25 µM | > 17.4 µM | > 25 µM | > 25 µM | > 25 µM | 15 µM | > 25 µM | 14.1 µM | > 25 µM | > 25 µM | > 25 µM | > 25 µM | > 25 µM
6 | COc1ccc2c(c1)C(=O)C(=O)c1cc(O)c(OC)c(OC)c1-2 | 1.64 µM | 9.97 µM and 3.16 µM | 2.8 µM | 3.18 µM and 9.14 µM | 1.77 µM | 1.77 µM and 4.23 µM | 0.291 µM | 0.272 µM and 0.807 µM | 1.77 µM | 1.67 µM and 3.15 µM | – | 10.5 µM and 14.1 µM | 1.72 µM | 1.6 µM and 3.09 µM | 1.97 µM | 1.59 µM and 3.38 µM | 1.76 µM | 1.54 µM and 3.16 µM | 1.65 µM | 2.42 µM and 3.13 µM
7 | O=C(O)CCC(=O)c1ccc2ccc3cccc4ccc1c2c34 | – | > 100 µM | – | > 100 µM | – | > 100 µM | – | > 100 µM | – | > 100 µM | – | > 100 µM | – | > 100 µM | – | > 100 µM | – | > 100 µM | – | > 100 µM
8 | O=P(NC12CC3CC(CC(C3)C1)C2)(N1CC1)N1CC1 | – | > 100 µM | – | > 100 µM | – | > 63.8 µM | – | > 100 µM | – | > 100 µM | – | > 100 µM | – | > 100 µM | – | > 100 µM | – | > 72.2 µM | – | > 100 µM
9 | C=CC(C)(O)/C=C/C=C(\C)C(CC1OC1(C)C)OC(=O)/C(C)=C\C (centres undefined) | – | > 100 µM | – | > 100 µM | – | > 100 µM | – | > 100 µM | – | > 100 µM | – | > 100 µM | – | > 100 µM | – | > 100 µM | – | > 100 µM | – | > 100 µM
10 | Cc1cc(C2=NNC(=O)Cc3cc4c(cc32)OCCO4)cc(C)c1N | 2.64 µM | > 100 µM | 0.965 µM | > 100 µM | 2.89 µM | > 100 µM | 0.261 µM | 0.978 µM | 0.901 µM | 7.66 µM | 3.26 µM | 44 µM | 2.35 µM | > 100 µM | 6.48 µM | > 100 µM | 3.59 µM | > 100 µM | 8.02 µM | > 100 µM
11 | COc1ccc2nc3cc(Cl)ccc3c(N3CCN(c4ccnc(N5CCOCC5)n4)CC3)c2c1 | > 100 µM | > 100 µM | 4.71 µM | > 100 µM | 8.61 µM | > 100 µM | 7.15 µM | > 100 µM | > 100 µM | > 100 µM | 3.86 µM | 42.4 µM | 6.29 µM | > 100 µM | 9.64 µM | > 100 µM | > 100 µM | > 100 µM | 7.58 µM | > 100 µM

From PubChem BioAssay (NCI)
